Here are results for 4 compounds from patent publication US6746835B2, “Thermally processed image recording material” (Fuji Photo Film Co., Ltd., priority 2001, dated 2004).

Bounds are passed on as bounds.

The nature of this series: pKa of the conjugate acid of the enolate anion (acid/base titration or UV absorption method). The class given is physicochemical. The settings on record: mixed solvent of THF/water=3/2. The source says: The conjugate acid of the enolate anion in the formula (1) has a pKa value of 3.0-6.0. If the pKa value is less than 3.0, ultrahigh contrast images cannot be obtained. On the other hand, if it exceeds 6.0, stability before light exposure and development is degraded. The pKa value defined herein is a value obtained by the acid/base titration method or the UV absorption method in a mixed solvent of THF/water=3/2.
Turning to `O=C1/C(=C/O)N=C(c2cc(C(F)(F)F)cc(C(F)(F)F)c2)N1c1ccc(Cl)cc1` [Compound A-6], the pKa (commonly the negative logarithm of the acid dissociation constant) stood at 3.8. Turning to `CCCCCCCCCCCCNc1ccc(N2C(=O)/C(=C\O)N=C2C(F)(F)F)cc1` [Compound A-18], the pKa was 3.1.

For `CCCCCCCCCCCCc1cc(CCCCCCCCCCCC)cc(N2N=C/C(=C/O)C2=O)c1` [Compound R-1], the pKa is at most 2.9. With `CCCCCCCCCCCCCCCc1cccc(CCCN2C(=O)/C(=C\O)c3ccccc32)c1` [Compound R-2], the pKa amounted to 6.3.
